The text below walks through data of patent publication US10952999B2, “Inhibitor of cyclin-dependent kinase CDK9” (GENFLEET THERAPEUTICS (SHANGHAI) INC., priority 2017, dated 2021).

Experiment [1] relates to MDS-RAEB (myelodysplastic syndrome-excess blasts type) cell line SKM-1. In words: Cancer cell growth, Cell Titer-Glo cell viability assay, 72 hours. In kind it is cell-based. As to conditions: Homo sapiens; SKM-1, 72 hours. A digest of the protocol:
(§1)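 Read-out: luminescent ATP measurement (CellTiter-Glo) as proxy for live cells; GI50/IC50 derived from it.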
(ATP-based viability assays read luminescence as a measure of living cells.)

Experiment [2] deals with acute B cell leukemia cell line MEC-1. Described as above. In kind it is cell-based. To be noted: Homo sapiens, MEC1; MEC-1, 72 hours. A digest of the protocol: as §1
The test system of experiment [3] is acute B cell leukemia cell line MEC-2. The experiment is described as above. In kind it is cell-based. To be noted: MEC2; MEC-2, 72 hours. The method in brief: as §1
Experiment [4] has as its system acute megakaryoblastic leukemia CMK. Described as above. In kind it is cell-based. A digest of the protocol:
as §1

The test system of experiment [5] is acute myelocytic leukemia (AML) OCI-AML-3. Described as above. In kind it is cell-based. To be noted: Homo sapiens, OCI-AML-3; OCI-AML3, 72 hours. A digest of the protocol:
as §1

Experiment [6] concerns acute myeloid leukemia cell line HL-60. Described as above. In kind it is cell-based. To be noted: Homo sapiens; HL-60, 72 hours. A digest of the protocol: as §1
Experiment [7] concerns acute myeloid leukemia cell line MOLM14. Described as above. As to conditions: Homo sapiens; MOLM-14, 72 hours. In kind it is cell-based. The method in brief: as §1
Experiment [8] has as its system acute myeloid leukemia cell line MV4-11. The experiment is described as above. To be noted: Homo sapiens; MV4-11, 72 hours. In kind it is cell-based. A digest of the protocol: as §1
Experiment [9] has as its system acute myeloid leukemia cell line OCI-AML-2. Described as above. In kind it is cell-based. To be noted: Homo sapiens; OCI-AML2, 72 hours. A digest of the protocol: as §1
For experiment [10], the system named is hamster ovary cell CHO. The description is as above. In kind it is cell-based. The method in brief:
as §1

Experiment [11] concerns histiocytic lymphoma U-937. The description is as above. In kind it is cell-based. As to conditions: Homo sapiens; U-937, 72 hours. The method in brief:
as §1

The subject of experiment [12] is human breast cancer cell MCF-7. Described as above. In kind it is cell-based. To be noted: MCF7, MCF-7, 72 hours. A digest of the protocol:
as §1

Experiment [13] deals with human breast cancer cell MDA-MB-468. The experiment is described as above. As to conditions: MDA-MB-468, 72 hours. In kind it is cell-based. The method in brief:
as §1

Experiment [14] concerns human breast cancer cell T47D. The experiment is described as above. In kind it is cell-based. A digest of the protocol:
as §1

For experiment [15], the system named is human lung adenocarcinoma cell H1355. The experiment is described as above. In kind it is cell-based. To be noted: NCI-H1355, H1355, 72 hours. The method in brief: as §1
In experiment [16] the test system is human lung adenocarcinoma cell H1395. The description is as above. To be noted: NCI-H1395, H1395, 72 hours. In kind it is cell-based. The method in brief: as §1
For experiment [17], the system named is human non-small cell lung cancer cell H1915. The experiment is described as above. In kind it is cell-based. As to conditions: NCI-H1915, H1915, 72 hours. A digest of the protocol: as §1
Experiment [18] has as its system human non-small cell lung cancer cell PC-9. The experiment is described as above. In kind it is cell-based. As to conditions: PC-9, 72 hours. A digest of the protocol: as §1
In experiment [19] the test system is phosphorylation of RNAPII, MCL-1, and c-MYC in MV4-11. In words: Effect on signaling pathway downstream of CDK9. In kind it is cell-based. As to conditions: MV4-11, 0.03-3 μM, 2 hours. How it is done: (§2) Against four cells, acute myelocytic leukemia cell line (AML) OCI-AML-3, acute promyelocytic leukemia cell line NB-4, acute myelocytic leukemia cell line (AML) HL-60 and acute myelocytic leukemia cell line (AML) MV4-11 (all purchased from ATCC), by measuring the biochemical endpoints and functional endpoints of multiple cells, the effect of compound 1 was evaluated on CDK9 in cells and other protein kinases related to its signaling pathway, such as RNAPII, XIAP, MCL-1, c-MYC, BCL-2 and so on. […] The effect of Compound 1 on the phosphorylation of CDK9, RNAPII, XIAP, MCL-1, c-MYC, BCL-2 in these cell lines was determined (FIG. 1a-d).

Experiment [20] concerns phosphorylation of RNAPII, MCL-1, and c-MYC in OCI-AML-3. In words: Effect on signaling pathway downstream of CDK9. In kind it is cell-based. As to conditions: OCI-AML-3, 0.03-3 μM, 2 hours. How it is done: as §2
Experiment [21] relates to MV4-11 acute granulocyte leukemia cells. In words: Human acute granulocyte leukemia MV4-11 mouse model, subcutaneous tumor. In kind it is in vivo, mice. How it is done:
24 Bal b/c female mice, 4-6 weeks, were purchased from Shanghai Slack Laboratory Animals Co., Ltd. and kept in SPF laboratory. The drinking water and padding were aseptically treated by autoclaving. All operations were carried out under aseptic conditions. On day 0, 5×10^6MV4-11 acute granulocyte leukemia cells (purchased from ATCC) were subcutaneously injected into the left side of all mice' back. Starting on day 15, all mice were divided into four groups (6 mice per group), methyl cellulose (HKI) solvent was orally administered to the first group of mice per day; compound 1 at a dose of 10 mg/kg mice body weight was orally administered to the second group of mice per day; compound 1 at a dose of 20 mg/kg mice body weight was orally administered to the third group of mice per day; compound 1 at a dose of 30 mg/kg mice body weight was orally administered to the fourth group of mice per day. From the start of administration, the length/width of the subcutaneous tumor was measured with a vernier caliper every day, and the body weight of the mouse was recorded every day, and the effect of compound 1 on the body weight of the mouse was observed. On day 43, the mice were sacrificed, subcutaneous tumors were taken out, and tumors were weighed and compared, and then a sample of protein lysate was prepared from the tumor sample tissue for use. The trend of subcutaneous tumor growth was counted within day 16 to day 43, and the tumor volume was calculated as: length×width×width/2 mm^3.

A word on the GI50: it is the concentration at which growth is held to half of that of the control. Read a high GI50 as lower sensitivity of the cells. By IC50 is commonly meant the point on the concentration scale where inhibition reaches its midpoint. Read a high IC50 as weaker potency in that assay. Consider `COC[C@@H](C)N[C@H]1CC[C@H](Nc2cc(-c3csc(NCC4(C#N)CCOCC4)n3)c(Cl)cn2)CC1` [Compound 1, 4-(((4-(5-chloro-2-(((1R,4r)-4-(((R)-1-methoxypropyl-2-yl)amino)cyclohexyl)amino)pyridin-4-yl)thiazol-2-yl)amino)methyl)tetrahydro-2H-pyran-4-carbonitrile], for which the GI50 in experiment [1] stood at 33 nM; in [2], 47 nM; in experiment [3], 25 nM; in [4], 49 nM; in experiment [5], 33 nM; in [6] it was 32 nM. Besides, the GI50 came to 25 nM in [7]; 14 nM in [8]; 33 nM in experiment [9]; 1600 nM in [10] (CHO, 72 hours); 17 nM in experiment [11]. For the same compound, in [10] (CHO cells), the “inhibitory effect on normal cell CHO (in words)” value was “no inhibitory effect”. The IC50 in [12] was 6 nM; in experiment [13] it was 18 nM; in experiment [14], 55 nM; in experiment [15], 100 nM; in experiment [16] it was 120 nM; in [17], 37 nM. The IC50 in experiment [18] turned out to be 90 nM. The “effect on the phosphorylation of RNAPII, MCL-1, and c-MYC directly downstream of CDK9 protein” value in experiment [19] and in experiment [20] was “significant inhibitory effect” each time. In addition, the “growth of subcutaneous tumors (in words)” value in experiment [21] (10, 20, 30 mg/kg orally per day, Bal b/c mice) was “effective in inhibiting the growth of subcutaneous tumors”. Also, in experiment [21] (high dose group (20, 30 mg/kg), orally per day, day 15 to day 43, Bal b/c mice), the “tumor growth inhibition (TGI)” value is 98.7%. The “weight of the subcutaneous tumor” value in [21] (low dose group (10 mg/kg), orally per day, Bal b/c mice) is “significantly reduced”.
